Experimental data published in US20250163062A1, “WNT PATHWAY INHIBITOR COMPOUNDS” (ADLAI NORTYE BIOPHARMA CO., LTD., priority 2022, published 2025).
Where two headings read alike, the source gives them in different places.

Key:
Format in all cases: cell-based
[1] = system: Colo205-LUC-TCF/LEF reporter gene; experiment: Colo205-LUC-TCF/LEF M1 reporter cell line luciferase inhibition; details: 4 h, 4 hours incubation, firefly luciferase signal
Procedure: Colo205 cell line (Cell Bank of Chinese Academy of Sciences, Cat #TCHul02) was purchased from the Cell Bank of Chinese Academy of Sciences. After expansion and subculture, during the exponential growth phase, luciferase reporter plasmid (Promega) driven by TCF/LEF transcription factor was transfected by lipo3000 liposome transfection. The plasmid carries a resistance gene for resistance screening. Transfection was carried out in 10 cm culture dishes using conventional complete medium without resistance. After 2 days, the medium with resistance was replaced, and the culture was continued. After that, the medium with resistance was replaced every 2 days, and the suspended cells were discarded. The original medium was centrifuged to remove cells and debris and retained as an adaptive medium. When the cells covered the culture dish, the cells were digested, counted, and passaged in a 96-well plate, so that the average number of cells contained in each well was 1.5/well, and the adaptive medium was used for passage. The rest of the cells were frozen. After passage, culture for 4 hours to allow the cells to adhere to the wall, and then observe the number of cells in each well under a microscope. Wells with only 1 cell per well were labeled as monoclonal wells. Afterwards, normal culture was performed, and the culture medium was replaced every 2 days, and observed. There are wells where the monoclonal cells continue to grow in the early stage, and they are labeled twice, and can be replaced with normal medium with resistance. When a monoclonal well was overgrown with a 96-well plate, it is digested and passaged to a 24-well culture plate. After the 24-well plate is overgrown, it is passaged to a 96-well plate and a 6-well plate. The cells in a 96-well plate are at least 6 wells, of which 3 wells were added with known Wnt inhibitors, and the other 3 wells were not treated. After 24 hours, the cells in the 96-well plate were added with a fluorescence detection reagent to detect the fluorescence intensity. Cell lines with fluorescent expression when not treated and decreased fluorescent light after inhibition were selected and further cultured. The Colo205-LUC-TCF/LEF-M1 cell line is one of the cell lines screened above. Its growth curve, cell shape, and cell growth state are similar to those of the original Colo205 cells, and the ratio of the fluorescent signals of the inhibitor-treated and untreated cells is the largest among all cell lines, and the ratio can reach 4-5 times when inhibited at 4 hours, which was completely suitable for the screening of Wnt inhibitors in the later stage.
The Colo205-LUC-TCF/LEF M1 cell line is a reporter tool cell stably transfected with the pGL4.49-LUC2-TCF/LEF vector. The β-catenin Wnt pathway is continuously activated. After adding the inhibitor, the Wnt pathway is inhibited. The expression of firefly luciferase regulated by the TCF/LEF cis-element decreased, and after adding the detection substrate, the detected light signal decreased accordingly, so as to detect the inhibitory effect of the compound.
To a 96-well cell culture plate, add 100 uL of the compound with a maximum concentration of 20 uM to each well, and make a 3-fold serial dilution of the compound concentration. Then 10,000 colo205 cells stably transfected with the reporter gene and 100 uL medium were inoculated into each well, and corresponding positive and negative control wells were made at the same time. Put the cells in a 5% CO2 incubator and incubate at 37° C. for 4 hours. After 4 hours, remove the culture medium, add 100 μL of reagent (Promega) containing the corresponding firefly luciferase substrate to each well, and measure the activity of luciferase reporter gene. Luminescence intensity was read with SpectraMax in full wavelength mode. […]

Colo205 = experiment: Proliferation inhibition test, Wnt mutant cell line Colo205; details: Colo205, 96 h culture with compound, read-out: Antiproliferation IC50 Colo205
Source text: (§1) The cell lines used in the experiment are Colo205, H929, HepG2, and DU4475, which have sustained activation of the Wnt pathway and whose proliferation is Wnt pathway-dependent. On the other hand, RKO cell line, in which normally the Wnt pathway is not activated and whose proliferation is not Wnt pathway-dependent, was used as a control cell line. This was done to determine whether the inhibitory effect of the compound of the present disclosure on Wnt-dependent proliferation is due to other nonspecific toxicity.
(§2) Colo205, H929, DU4475, HepG2 and RKO cell lines cultured in their respective culture media were treated in the logarithmic growth phase, and the cells were collected and prepared into a uniform cell suspension of known concentration, and then added to a 96-well cell culture plate so that each well contained 1000-4000 cells. Place in a 5% CO2 cell culture incubator and culture at 37° C. for 20-24 h. On the second day, add the completely dissolved, 3-fold gradient dilution compound to each cell culture well to make the final maximum concentration in the cell culture well 10 uM, and continue to culture for 96 h. This test uses Promega's cell activity detection test for detection. The more the cells proliferate, the stronger the final signal intensity. The detection instrument is SpectraMax, full wavelength mode. The wells with only DMSO added were used as positive control wells, and the wells without cells inoculated were used as negative control wells.

DU4475 = experiment: Proliferation inhibition test, Wnt mutant cell line DU4475; details: DU4475, 96 h culture with compound, read-out: Antiproliferation IC50 DU4475
Source text: as §1, §2

H929 = experiment: Proliferation inhibition test, Wnt mutant cell line H929; details: H929, 96 h culture with compound, read-out: Antiproliferation IC50 H929
Source text: as §1, §2

HepG2 = experiment: Proliferation inhibition test, Wnt mutant cell line HepG2; details: HepG2, 96 h culture with compound, read-out: Antiproliferation IC50 HepG2
Source text: as §1, §2

RKO = experiment: Proliferation inhibition test, non-Wnt mutant control cell line RKO; details: RKO (Wnt pathway not activated, control), 96 h culture, maximum concentration 10 uM, read-out: Antiproliferation IC50 RKO
Source text: as §1, §2

IC50 [1] [nM]	IC50 (Colo205; Homo sapiens, COLO 205, 96 h) [nM]	IC50 (H929; Homo sapiens, NCI-H929, 96 h) [nM]	IC50 (HepG2; Homo sapiens, HepG2, 96 h) [nM]	IC50 (Colo205) [nM]	IC50 (H929) [nM]	IC50 (HepG2) [nM]	Compound	IC50 (DU4475; Homo sapiens, DU-4475, 96 h) [nM]	IC50 (RKO; Homo sapiens) [nM]	IC50 (DU4475) [nM]	IC50 (RKO) [nM]
90	–	–	–	64.3	309	224	Cc1nc(C(F)(F)F)ncc1Oc1ccc(CNc2nc3c4c(n2)N(C)[C@@](C)([C@H](C)O)C(=O)N4CCC3)cn1 [Compound 22]	–	–	38.6	> 10000
64.7	53.7	192	37.5	–	–	–	Cc1nc(C(F)(F)F)ncc1Oc1ccc(CNc2nc3c4c(n2)N(C)[C@@H]([C@@H](C)O)C(=O)N4CCC3)cn1 [Compound 23]	16	> 10000	–	–
48	46.5	5.61	37	–	–	–	[2H]C([2H])([2H])N1c2nc(NCc3ccc(Oc4cnc(C(F)(F)F)nc4C)nc3)nc3c2N(CCC3)C(=O)[C@@H]1[C@@H](C)O [Compound 24]	23.2	> 10000	–	–
69.4	64.5	98	68	–	–	–	Cc1nc(C(F)(F)F)ncc1Oc1ccc(CNc2nc3c4c(n2)N(C)[C@@H]([C@H](C)O)C(=O)N4CCC3)cn1 [Compound 25]	15.9	> 10000	–	–
43.8	18.9	98.8	13.6	–	–	–	CN1c2nc(NCc3ccc(Oc4ccc(C(F)(F)F)nc4F)nc3)nc3c2N(CCC3)C(=O)[C@@H]1CO [Compound 26]	12.1	> 10000	–	–
30.6	22.8	90.2	38.3	–	–	–	[2H]C([2H])([2H])N1c2nc(NCc3ccc(Oc4ccc(C(F)(F)F)nc4F)nc3)nc3c2N(CCC3)C(=O)[C@@H]1CO [Compound 27]	24.6	> 10000	–	–

More lines, now with the values behind:

Compound	IC50 [1] [nM]	IC50 (Colo205; Homo sapiens, COLO 205, 96 h) [nM]	IC50 (H929; Homo sapiens, NCI-H929, 96 h) [nM]	IC50 (HepG2; Homo sapiens, HepG2, 96 h) [nM]	IC50 (Colo205) [nM]	IC50 (H929) [nM]	IC50 (HepG2) [nM]	IC50 (DU4475; Homo sapiens, DU-4475, 96 h) [nM]	IC50 (RKO; Homo sapiens) [nM]	IC50 (DU4475) [nM]	IC50 (RKO) [nM]
[2H]C([2H])([2H])N1c2nc(NCc3ccc(Oc4cnc(C(F)(F)F)nc4C4CC4)nc3)nc3c2N(CCC3)C(=O)[C@]1(C)CO [Compound 10, (S)-2-(((6-((4-cyclopropyl-2-(trifluoromethyl)pyrimidin-5-yl)oxy)pyridin-3-yl)methyl)amino)-5-(hydroxymethyl)-5-methyl-4-(methyl-d3)-4,5,9,10-tetrahydro-6H,8H-pyrido[3,2,1-de]pteridin-6-one]	3.89	2.34	18	3.54	–	–	–	< 0.5	> 10000	–	–
[2H]C([2H])([2H])N1c2nc(NCc3ccc(Oc4ccc(C(F)(F)F)nc4Br)nc3)nc3c2N(CCC3)C(=O)[C@]1(C)CO [Compound 12, (S)-2-(((6-((2-bromo-6-(trifluoromethyl)pyridin-3-yl)oxy)pyridin-3-yl)methyl)amino)-5-(hydroxymethyl)-5-methyl-4-(methyl-d3)-4,5,9,10-tetrahydro-6H,8H-pyrid o[3,2,1-de]pteridin-6-one]	9.09	6.52	31.3	12.1	–	–	–	0.82	> 10000	–	–
CN1c2nc(NCc3ccc(Oc4ccc(C(F)(F)F)nc4N4CCCC4)nc3)nc3c2N(CCC3)C(=O)[C@]1(C)CO [Compound 13, (S)-5-(Hydroxymethyl)-4,5-dimethyl-2-(((6-((2-(pyrrolidin-1-yl)-6-(trifluoromethyl)pyridin-3-yl)oxy)pyridin-3-yl)methyl)amino)-4,5,9,10-tetrahydro-6H,8H-pyrido[3,2,1-de]pteridin-6-one]	6.86	11.5	54	19.1	–	–	–	1.58	> 10000	–	–
CNc1nc(C(F)(F)F)ccc1Oc1ccc(CNc2nc3c4c(n2)N(C)[C@@](C)(CO)C(=O)N4CCC3)cn1 [Compound 16, (S)-5-(Hydroxymethyl)-4,5-dimethyl-2-(((6-((2-(methylamino)-6-(trifluoromethyl)pyridin-3-yl)oxy)pyridin-3-yl)methyl)amino)-4,5,9,10-tetrahydro-6H,8H-pyrido[3,2,1-de]pteridin-6-one]	21.5	< 0.1	103	1.13	–	–	–	1.2	> 10000	–	–
CN1c2nc(NCc3ccc(Oc4ccc(C(F)(F)F)nc4CC#N)nc3)nc3c2N(CCC3)C(=O)[C@@H]1CO [Compound 17, (S)-2-(3-((5-(((5-(Hydroxymethyl)-4-methyl-6-carbonyl-5,6,9,10-tetrahydro-4H,8H-pyrido[3,2,1-de]pteridin-2-yl)amino)methyl)pyridin-2-yl)oxy)-6-(trifluoromethyl)pyridin-2-yl)acetonitrile]	264	179	599	879	–	–	–	42.9	> 10000	–	–
[2H]C([2H])([2H])N1c2nc(NCc3ccc(Oc4ccc(C(F)(F)F)nc4F)nc3)nc3c2N(CCC3)C(=O)[C@]1(C)CO [Compound 18, (S)-2-(((6-((2-fluoro-6-(trifluoromethyl)pyridin-3-yl)oxy)pyridin-3-yl)methyl)amino)-5-(hydroxymethyl)-5-methyl-4-(methyl-d3)-4,5,9,10-tetrahydro-6H,8H-pyrido[3,2,1-de]pteridin-6-one]	29.9	7.43	78.8	22.1	–	–	–	6.72	> 10000	–	–
Cc1nc(C(F)(F)F)ncc1Oc1ccc(CNc2nc3c4c(n2)N(C)[C@@](C)(CO)C(=O)N4CCC3)cn1 [Compound 19]	34.8	26.6	58.3	31.1	–	–	–	14.8	> 10000	–	–
CN(c1nc(C(F)(F)F)ccc1Oc1ccc(CNc2nc3c4c(n2)N(C)[C@@](C)(CO)C(=O)N4CCC3)cn1)C1CC1 [Compound 20]	1.46	< 0.1	52	3.22	–	–	–	< 0.1	> 10000	–	–
CN1c2nc(NCc3ccc(Oc4ccc(C(F)(F)F)nc4N4CC(F)(F)C4)nc3)nc3c2N(CCC3)C(=O)[C@]1(C)CO [Compound 21]	4.94	< 0.1	255	1.52	–	–	–	4.83	> 10000	–	–
